These results are taken from patent publication US7935726B1, “Tricyclic pyrones” (Kansas State University Research Foundation, priority 1999, dated 2011).

One data set concerns ACAT. Kind of data set: inhibition of ACAT. It is filed as biochemical.
The test system of a further data set is MC65 cells. Kind of data set: protection from APP C99-induced cell death in MC65 cells. It counts as cell-based. The note with it: for pEC50: MC65 cells in the absence of tetracycline; for protection of MC65 cells from death (in words): MC65 cells conditionally expressing partial APP fusion protein, absence of tetracycline. The text has this:
The reported procedures for the inhibitory activities of ACAT (Tomoda, H.; Nishida, H.; Masuma, R.; Cao, J.; Okuda, S.; Omura, S. J. Antibiot. 1991, 44, 136-143), CETP (Tomoda, H.; Tabata, N.; Masuma, R.; Si, S.-Y.; Omura, S. J. Antibiot. 1998, 51, 618-623; D. H. Hua et al. Tetrahedron 2003, 59, 4795-4803), L1210 tumor cells (Perchellet, E. M.; Ladesich, J. B.; Magill, M. J.; Chen, Y.; Hua, D. H.; Perchellet, J. P. Anti-Cancer Drugs 1999, 10, 489-504), and APP C99-induced cell death (Jin, L.-W.; Hua, D. H.; Shie, F.-S.; Maezawa, I.; Sopher, B.; Martin, G. M. J. Mol. Neurosci. 2002, 19, 57-61) were followed. […]

For another data set, the target named is T1, CETP (Homo sapiens, UniProt P11597).
T1 sequence (P11597 18-493): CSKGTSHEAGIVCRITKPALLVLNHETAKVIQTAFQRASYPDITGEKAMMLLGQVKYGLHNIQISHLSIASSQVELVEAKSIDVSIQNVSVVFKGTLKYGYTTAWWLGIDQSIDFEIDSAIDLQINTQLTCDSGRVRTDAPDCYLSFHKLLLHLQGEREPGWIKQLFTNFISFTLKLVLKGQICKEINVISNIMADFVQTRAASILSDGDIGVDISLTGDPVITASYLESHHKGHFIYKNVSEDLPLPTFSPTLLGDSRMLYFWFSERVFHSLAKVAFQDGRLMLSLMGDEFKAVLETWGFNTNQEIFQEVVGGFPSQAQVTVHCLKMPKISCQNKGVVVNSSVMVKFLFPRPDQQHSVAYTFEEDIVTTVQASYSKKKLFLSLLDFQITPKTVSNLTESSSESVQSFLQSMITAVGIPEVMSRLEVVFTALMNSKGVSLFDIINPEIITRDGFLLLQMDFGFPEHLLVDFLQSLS
Kind of data set: inhibition of CETP. It counts as biochemical. The text has this: The reported procedures for the inhibitory activities of ACAT (Tomoda, H.; Nishida, H.; Masuma, R.; Cao, J.; Okuda, S.; Omura, S. J. Antibiot. 1991, 44, 136-143), CETP (Tomoda, H.; Tabata, N.; Masuma, R.; Si, S.-Y.; Omura, S. J. Antibiot. 1998, 51, 618-623; D. H. Hua et al. Tetrahedron 2003, 59, 4795-4803), L1210 tumor cells (Perchellet, E. M.; Ladesich, J. B.; Magill, M. J.; Chen, Y.; Hua, D. H.; Perchellet, J. P. Anti-Cancer Drugs 1999, 10, 489-504), and APP C99-induced cell death (Jin, L.-W.; Hua, D. H.; Shie, F.-S.; Maezawa, I.; Sopher, B.; Martin, G. M. J. Mol. Neurosci. 2002, 19, 57-61) were followed.
ACAT mediates the esterification of intracellular cholesterol and is believed to play a key role in lipoprotein metabolism and atherogenesis (for a review: Suckling, K. E.; Stange, E. F. J. Lipid Res. 1985, 26, 647-671). […] The inhibition of CETP with these three compounds was then studied. CETP, a hydrophobic neutral glycoprotein, mediates the transfer of cholesteryl ester from high-density lipoprotein to low-density lipoprotein (For a review: Tall, A. R. J. Lipid Res. 1993, 34, 1255-1274). […] The N-(p-nitrophenyl)aspartamide portion of 104 was attached in order to study whether 104 was a substrate of […] (For a review: VIIIa, P.; Kaufmann, S. H.; Earnshaw, W. C. Trends Biochem. Sci. 1997, 22, 388-393). […] Compound 105 is cytotoxic to L1210 tumor cells, with IC50=30 μM. Aggarwal et al., J. Chem. Soc., Perkin Trans I (1999) 3315-3321 is incorporated by reference to the extent not inconsistent with the disclosure herewith.

The target in data set [1] is T2, Human aldose reductase (AR) (Homo sapiens, UniProt P15121).
T2 construct: made in house; host or cells: E. coli
Kind of data set: human AR inhibition assay (enzyme assay, NADPH absorption at 340 nm). Particulars: Table 4. It counts as biochemical. As for the experimental part:
Human aldose reductase (AR) was obtained from overexpression of the human AR gene in an E coli system and was purified by column chromatography using a talon metal affinity column and eluted with a gradient mixture of Tris, NaCl buffer and imidazole solution. The human AR inhibition assay was conducted as follows. In a sample cuvette, 25 mM of D-xylose (75 mg/mL) and 0.15 mM of reduced nicotinamide adenine dinucleotide phosphate (NADPH) (4 mg/mL), and various amount of the inhibitor [in PBS (phosphate buffer saline) solution; the concentration of the inhibitor was determined using UV spectroscopy based on εmax at λmax of the drug] in 700 uL of PBS (a solution made of 1.44 g of Na2HPO4, 0.24 g KH2PO4, 0.2 g KCl, and 8 g NaCl in 1 L of distilled water) buffer (pH=6.1) solution and 200 uL of the AR enzyme (a final volume of 1 mL was obtained). The intensity of absorption of NADPH (λmax=340 nm) was measured. When xylose is reduced to xylitol, NADPH is converted into NADP and the absorption at 340 nm decreases. When AR is inhibited by the drug, the absorption at 340 nm of NADPH remains unchanged. Each assay was repeated three times and an average IC50 value was obtained.

Data set [2] relates to N/N 1003 lens epithelial cells. Kind of data set: tissue culture assay: galactitol formation from galactose in lens epithelial cells (GC/MS). The note with it: Epithelial cell; 10 uM inhibitor; 40 mM galactose media, lens epithelial cells, 48 hours; number of trials in parenthesis. It is filed as cell-based. How it is done: The activity of the drugs is tested in various ways, including tissue culture assays and assays testing aldose reductase inhibition. For the tissue culture assay, a lens epithelial cell line is grown in galactose with or without the drug. Cells are tested for polyol accumulation by GC/mass spectrometry. Levels of PKC are tested in homogenized cell pellets or in samples of lens, retina or sciatic nerves from treated patients. Tissue is homogenized and tested for PKCγ levels using Western blots. These procedures are described in more detail below.
The ability of the drugs to inhibit galactitol formation from galactose was also studied in N/N 1003 lens epithelial cells. Two sets of lens cells were grown in media with […] 40 mM galactose. Various concentrations of inhibitors were added initially and the cells were grown for 48 hours. The cells were lysed and galactose and galactitol were extracted out and the concentrations were determined using gas chromatography and mass spectrometry by silylating the crude extract with excess of trimethylsilyl chloride, trimethylsilyl imidazole and pyridine at 70° C. for 1 h.
40 mM galactose media was supplemented with 10 uM inhibitor and fed to lens epithelial cells for 48 hours.

pEC50, pIC50: −log10 of the molar value.

`C=C(C)[C@H]1CCC2=Cc3c(cc(C)oc3=O)O[C@H]2C1` [Compound 108] gave a pIC50 in the data set on ACAT of 3.78. Moreover, in the data set with MC65 cells, the negative logarithm of the EC50 (pEC50) is less than 5.00. `CC(CO)[C@H]1CCC2=Cc3c(cc(CC(=O)OCc4ccccc4)oc3=O)O[C@H]2C1` (mixture of isomers) [Compound 102, Benzyl (5aS,7S)-{7-[(1R)- and (1S)-2-hydroxy-1-methylethyl]-1H,7H-5a,6,8,9-tetrahydro-1-oxopyrano[4,3-b][1]benzopyran-3-yl}acetate]: the pIC50 is 3.51 with ACAT and less than 4.00 against CETP. In the case of `O=C(O)CCc1cc2c(c(=O)o1)C=C1CCCCC1O2` (stereo not drawn) [Compound 5a], the water solubility result in the data set “water solubility” is “water soluble”. With `Nc1ncnc2nc[nH]c12` [Adenine, reference compound], in the data set with MC65 cells, the “protection of MC65 cells from death (in words)” value (from here on “protection of MC65 cells”) was “no activity” and the pEC50 was less than 5.00. In the case of `O=C(O)C(O)Cc1cc2c(c(=O)o1)C=C1CCCCC1O2` (stereo not drawn) [Compound 3, 2-Hydroxy-3-{1H,7H-5a,6,8,9-tetrahydro-1-oxopyrano[4,3-b][1]benzopyran-3-yl}-propanoic acid], the negative-log IC50 (pIC50) in data set [1] (read-out: IC50 values obtained from the enzyme assay (aldose reductase)) is less than 3.30. The inhibition at 10 µM in data set [2] was less than 10%. As to `C=C(C)[C@H]1CCC2=Cc3c(cc(CC(=O)O)oc3=O)O[C@H]2C1` [Compound 6, {(5aS,7S)-7-Isopropenyl-1H,7H-5a,6,8,9-tetrahydro-1-oxopyrano[4,3-b][1]-benzopyran-3-yl}acetic acid], in data set [1], the “IC50 values obtained from the enzyme assay (aldose reductase)” value is recorded as “No significant inhibition detected”. For `Cc1cc2c(c(=O)o1)C=C1CC[C@H](C(C)CNc3ncnc4[nH]cnc34)C[C@@H]1O2` (mixture of isomers) [Compound 107, (5aS,7S)-7-[(1R) and (1S)-2-(N10-Adenyl)-1-methylethyl]-3-methyl-1H,7H-5a,6,8,9-tetrahydro-1-oxopyrano[4,3-b][1]benzopyran], in the data set with MC65 cells, the “protection of MC65 cells” value was “inactive” and the pEC50 was less than 5.52. Turning to `CC(CO)[C@H]1CC[C@@H]2[C@H](C1)Oc1cc(CC(=O)OCc3ccccc3)oc(=O)c1[C@H]2O` (mixture of isomers) [Compound 103, Benzyl (5aS,7S,9aS,10S)-{10-hydroxy-7-[(1R) and (1S)-2-hydroxy-1-methylethyl]-1H,7H-5a,6,8,9-tetrahydro-1-oxopyrano[4,3-b][1]benzopyran-3-yl}acetate], the pIC50 was 3.82 in the data set on ACAT and 4.12 at CETP. The corresponding values for `C=C(C)[C@H]1CCC2=Cc3c(cc(CC(=O)OCc4ccccc4)oc3=O)O[C@H]2C1` [Compound 101, Benzyl (5aS,7S)-{7-isopropenyl-1H,7H-5a,6,8,9-tetrahydro-1-oxopyrano[4,3-b][1]benzopyran-3-yl}acetate] are 3.80 and less than 4.00. `Cc1cc2c(c(=O)o1)C=C1CC[C@H](C(C)Cn3cnc(N)c4ncnc3-4)C[C@@H]1O2` (mixture of isomers) [Compound 106, (5aS,7S)-7-[(1R) and (1S)-2-(N-3-adenyl)-1-methylethyl]-3-methyl-1H,7H-5a,6,8,9-tetrahydro-1-oxopyrano[4,3-b][1]benzopyran]: the negative logarithm of the IC50 (pIC50) in the data set with ACAT was less than 3.30. This compound also had a negative-log IC50 (pIC50) against CETP of less than 3.60. In addition, in the data set with MC65 cells, the “protection of MC65 cells” value is on record as “protected from death” and the pEC50 is 6.82. As to `CC(CO)[C@H]1CCC2=Cc3c(cc(CC(=O)O)oc3=O)O[C@H]2C1` (stereo partly drawn) [Compound 7], the “IC50 values obtained from the enzyme assay (aldose reductase)” value in data set [1] was “No significant inhibition detected”.

As a reminder, the pIC50 is the IC50 on a negative log10 scale, so that one unit is a factor of ten. The term pEC50 denotes −log10 of the EC50, conventionally taken in molar units. Higher therefore signals a low EC50. The inhibition is how much of the control response was suppressed.
